Measurements taken from patent publication US12123010B2, “Plants having increased tolerance to herbicides” (BASF SE, priority 2017, dated 2024).
Values joined by “and” are separate entries in the source; they are usually repeats but may differ in a detail not shown here. Equal entries are not always repeated.

Columns and labels:
[1] = biological target: Wild Type PPO Enzyme (Amaranthus PPO2, SEQ ID NO: 1) (Amaranthus tuberculatus, UniProt Q0NZW9); experiment: PPO enzyme assay (recombinant), wild type; type: biochemical
Chain of Wild Type PPO Enzyme (Amaranthus PPO2, SEQ ID NO: 1) (Q0NZW9 1-534): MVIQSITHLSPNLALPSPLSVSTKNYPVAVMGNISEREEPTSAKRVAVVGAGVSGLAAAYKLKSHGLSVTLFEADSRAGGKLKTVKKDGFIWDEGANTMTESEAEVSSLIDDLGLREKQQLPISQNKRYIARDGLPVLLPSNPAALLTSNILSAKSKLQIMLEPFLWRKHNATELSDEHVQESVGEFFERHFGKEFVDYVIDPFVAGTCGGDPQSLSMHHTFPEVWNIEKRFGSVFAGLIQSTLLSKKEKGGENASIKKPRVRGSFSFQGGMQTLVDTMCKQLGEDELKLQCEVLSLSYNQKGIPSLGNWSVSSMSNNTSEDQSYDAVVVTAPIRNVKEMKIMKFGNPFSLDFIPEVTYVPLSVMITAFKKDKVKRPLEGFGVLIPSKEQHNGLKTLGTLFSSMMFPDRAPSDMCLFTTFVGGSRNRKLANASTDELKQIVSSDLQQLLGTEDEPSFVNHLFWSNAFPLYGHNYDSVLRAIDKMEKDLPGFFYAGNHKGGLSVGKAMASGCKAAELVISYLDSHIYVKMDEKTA

[2] = tested on: Variant PPO Enzyme R128A, F420V (Amaranthus PPO2); experiment: biochemical; type: biochemical; details: variant R128A, F420V vs wild type
[3] = tested on: Variant PPO Enzyme R128A, F420M (Amaranthus PPO2); type: biochemical; details: variant R128A, F420M vs wild type
[4] = tested on: Variant PPO Enzyme L397Q, F420V (Amaranthus PPO2); type: biochemical; details: variant L397Q, F420V vs wild type
[5] = tested on: Variant PPO Enzyme L397Q, F420M (Amaranthus PPO2); type: biochemical; details: variant L397Q, F420M vs wild type
[6] = tested on: Variant PPO Enzyme L397Q (Amaranthus PPO2); type: biochemical; details: variant L397Q vs wild type
[7] = tested on: Variant PPO Enzyme F420V (Amaranthus PPO2); type: biochemical; details: variant F420V vs wild type
[8] = tested on: Variant PPO Enzyme F420M (Amaranthus PPO2); experiment: biochemical; type: biochemical; details: variant F420M vs wild type
[9] = tested on: Transgenic T2 Arabidopsis plants harboring PPO inhibitor tolerance trait; experiment: Lab based germination assay in 48-well plates (Table i); type: in vivo, Arabidopsis thaliana; details: in comparison to wild type plants
[10] = tested on: Transgenic T2 Arabidopsis plants and ARBTH WT MC24 non-transgenic; experiment: Greenhouse post spray test, injury 14 DAT (Tables ii, iii); type: in vivo, Arabidopsis thaliana;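 also: value is percent injury to the sprayed plants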
[11] = tested on: Transgenic T2 or T3 Soybean plants harbouring PPO inhibitor tolerance trait and Jake non transgenic; experiment: Soybean greenhouse post spray, injury score 7 DAT; details: in vivo
Procedure: Soybean cv Jake is transformed as previously described by Siminszky et al., Phytochem Rev. 5:445-458 (2006). After regeneration, transformants are transplanted to soil in small pots, placed in growth chambers (16 hr day/8 hr night; 25° C. day/23° C. night; 65% relative humidity; 130-150 microE m-2 s-1) and subsequently tested for the presence of the T-DNA via Taqman analysis. After a few weeks, healthy, transgenic positive, single copy events are transplanted to larger pots and allowed to grow in the growth chamber. An optimal shoot for cutting is about 3-4 inches tall, with at least two nodes present. Each cutting is taken from the original transformant (mother plant) and dipped into rooting hormone powder (indole-3-butyric acid, IBA). The cutting is then placed in oasis wedges inside a bio-dome. The mother plant is taken to maturity in the greenhouse and harvested for seed. Wild type cuttings are also taken simultaneously to serve as negative controls. The cuttings are kept in the bio-dome for 5-7 days and then transplanted to 3 inch pots and then acclimated in the growth chamber for two more days. Subsequently, the cuttings are transferred to the greenhouse, acclimated for approximately 4 days prior to spray. […] Herbicide injury evaluations are taken at 2, 7, 14 and 21 days after treatment. […]

## CCOC(=O)COc1ncccc1Oc1cc(-n2c(=O)cc(C(F)(F)F)n(C)c2=O)c(F)cc1Cl [Uracilpyridine 1, ethyl 2-[[3-[2-chloro-4-fluoro-5-[3-methyl-2,6-dioxo-4-(trifluoromethyl)pyrimiclin-1-yl]phenoxy]-2-pyridyl]oxy]acetate]
[1]
  IC50: 0.177 nM
[2]
  Tolerance Factor (R/S): 915 and 1579
[3]
  Tolerance Factor (R/S): 347
[4]
  Tolerance Factor (R/S): 12739
[5]
  Tolerance Factor (R/S): 2418
[6]
  Tolerance Factor (R/S): 13
[7]
  Tolerance Factor (R/S): 374
[8]
  Tolerance Factor (R/S): 215 and 265
[9]; construct ARBTH_PPO1_S305L_Y426M (Arabidopsis thaliana)
  Tolerance Factor: 250
[9]; construct ARBTH_PPO1_WT (Arabidopsis thaliana)
  Tolerance Factor: 50
[10]; Table ii, ALOMY_PPO2_R137L_F438V event F, 50 g ai/ha
  injury (%): 20%
[10]; Table ii, ALOMY_PPO2_R137L_F438V event F, 100 g ai/ha
  injury (%): 33%
[10]; Table ii, ALOMY_PPO2_R137L_F438V event F, 200 g ai/ha
  injury (%): 65%
[10]; Table ii, ALOMY_PPO2_R137L_F438V event G, 50 g ai/ha
  injury (%): 5%
[10]; Table ii, ALOMY_PPO2_R137L_F438V event G, 100 g ai/ha
  injury (%): 75%
[10]; Table ii, ALOMY_PPO2_R137L_F438V event G, 200 g ai/ha
  injury (%): 28%
[10]; Table ii, ALOMY_PPO2_TP_AMATU_PPO2_R128M_F420I event R, 50 g ai/ha
  injury (%): 60%
[10]; Table ii, ALOMY_PPO2_TP_AMATU_PPO2_R128M_F420I event R, 100 g ai/ha
  injury (%): 92%
[10]; Table ii, ALOMY_PPO2_TP_AMATU_PPO2_R128M_F420I event R, 200 g ai/ha
  injury (%): 84%
[10]; Table ii, AMATU_PPO2_R128A_F420M event Q, 50 g ai/ha
  injury (%): 55%
[10]; Table ii, AMATU_PPO2_R128A_F420M event Q, 100 g ai/ha
  injury (%): 60%
[10]; Table ii, AMATU_PPO2_R128A_F420M event Q, 200 g ai/ha
  injury (%): 75%
[10]; Table ii, AMATU_PPO2_R128M_F420I event K, 50 g ai/ha
  injury (%): 60%
[10]; Table ii, AMATU_PPO2_R128M_F420I event K, 100 g ai/ha
  injury (%): 73%
[10]; Table ii, AMATU_PPO2_R128M_F420I event K, 200 g ai/ha
  injury (%): 75%
[10]; Table ii, AMATU_PPO2_TP_hemG event R, 50 g ai/ha
  injury (%): 60%
[10]; Table ii, AMATU_PPO2_TP_hemG event R, 100 g ai/ha
  injury (%): 63%
[10]; Table ii, AMATU_PPO2_TP_hemG event R, 200 g ai/ha
  injury (%): 53%
[10]; Table ii, ARBTH WT MC24 non-transgenic, 50 g ai/ha + 1% MSO
  injury (%): 100%
[10]; Table ii, ARBTH WT MC24 non-transgenic, 100 g ai/ha + 1% MSO
  injury (%): 100%
[10]; Table ii, ARBTH WT MC24 non-transgenic, 200 g ai/ha + 1% MSO
  injury (%): 100%
[10]; Table iii, ALOMY_PPO2_R137L_F438M (unnamed lines), 50 g ai/ha
  injury (%): 0%
[10]; Table iii, AMATU_PPO2_L397Q_F420V (unnamed lines), 50 g ai/ha
  injury (%): 40% and 75%
[10]; Table iii, AMATU_PPO2_L397Q_F420V (unnamed lines), 100 g ai/ha
  injury (%): 85% and 65%
[10]; Table iii, AMATU_PPO2_R128A_F420I (unnamed lines), 50 g ai/ha
  injury (%): 60% and 70% and 75%
[10]; Table iii, AMATU_PPO2_R128A_F420I (unnamed lines), 100 g ai/ha
  injury (%): 95% and 65% and 80% and 60%
[10]; Table iii, AMATU_PPO2_R128A_F420L (unnamed lines), 100 g ai/ha
  injury (%): 60% and 90% and 95% and 80%
[10]; Table iii, AMATU_PPO2_R128A_F420V (unnamed lines), 50 g ai/ha
  injury (%): 95% and 90% and 55% and 65%
[10]; Table iii, AMATU_PPO2_R128A_F420V (unnamed lines), 100 g ai/ha
  injury (%): 80% and 95% and 98%
[10]; Table iii, ARBTH WT MC 24 (non-transgenic), 50 g ai/ha + 1% MSO
  injury (%): 100%
[10]; Table iii, ARBTH WT MC 24 (non-transgenic), 100 g ai/ha + 1% MSO
  injury (%): 100%
[11]
  injury (0-9): 3 and 2 and 4 and 0 (No Injury)
